What was measured:
Format in all cases: in vivo
[1] = tested on: sedge umbrella (small-flower umbrella sedge, Cyperus difformis); test: Test D flooded paddy test, visual plant response rating; conditions: 250 g ai/ha, scale 0 to 100 (0 no effect, 100 complete control), 13 to 15 d
How it was run: (§1)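 Greenhouse paddy assay scored on a 0–100 visual scale after 13 to 15 d, where 100 means complete control and a dash marks no result; dosing was into 3 cm floodwater over 2-leaf plants.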

[2] = tested on: barnyardgrass (Echinochloa crus-galli); test: as above; conditions: 250 g ai/ha, scale 0 to 100 (0 no effect, 100 complete control), 13 to 15 d
How it was run: as §1

[3] = tested on: rice (Oryza sativa); test: as above; conditions: 250 g ai/ha, scale 0 to 100 (0 no effect, 100 complete control), 13 to 15 d
How it was run: as §1

[4] = tested on: duck salad (Heteranthera limosa); test: as above; conditions: 250 g ai/ha, scale 0 to 100 (0 no effect, 100 complete control), 13 to 15 d
How it was run: as §1

[5] = tested on: foxtail, giant (giant foxtail, Setaria faberi); test: Test C postemergence, visual plant response rating; conditions: Test C, postemergence
How it was run: (§2)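 Seeds sown in a loam–sand blend got a directed preemergence soil spray; postemergence plants (2–10 cm, one- to two-leaf stage) were sprayed with compound in a non-phytotoxic solvent plus surfactant. Injury was scored visually against untreated controls after about 10 d in a greenhouse on a 0–100 scale (100 = complete control).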

[6] = tested on: pigweed (Amaranthus retroflexus); test: Test C postemergence, visual plant response rating
How it was run: as §2

[7] = tested on: kochia (Bassia scoparia); test: Test C postemergence, visual plant response rating; conditions: Test C, postemergence
How it was run: as §2

[8] = tested on: blackgrass (Alopecurus myosuroides); test: Test C postemergence, visual plant response rating; conditions: Test C, postemergence
How it was run: as §2

[9] = tested on: corn (Zea mays); test: Test C postemergence, visual plant response rating; conditions: Test C, postemergence
How it was run: as §2

[10] = tested on: Italian ryegrass (Lolium mutiflorum); test: Test C postemergence, visual plant response rating
How it was run: as §2

[11] = tested on: barnyardgrass (Echinochloa crus-galli); test: Test C postemergence, visual plant response rating; conditions: Test C, postemergence
How it was run: as §2

[12] = tested on: ragweed (common ragweed, Ambrosia artemisiifolia); test: Test C postemergence, visual plant response rating
How it was run: as §2

[13] = tested on: galium (catchweed bedstraw, Galium aparine); test: Test C postemergence, visual plant response rating; conditions: Test C, postemergence
How it was run: as §2

[14] = tested on: wheat (Triticum aestivum); test: Test C postemergence, visual plant response rating
How it was run: as §2

[15] = tested on: foxtail, giant (giant foxtail, Setaria faberi); test: Test C preemergence, visual plant response rating
How it was run: as §2

[16] = tested on: pigweed (Amaranthus retroflexus); test: Test C preemergence, visual plant response rating
How it was run: as §2

[17] = tested on: kochia (Bassia scoparia); test: Test C preemergence, visual plant response rating
How it was run: as §2

[18] = tested on: Italian ryegrass (Lolium mutiflorum); test: Test C preemergence, visual plant response rating
How it was run: as §2

[19] = tested on: barnyardgrass (Echinochloa crus-galli); test: Test C preemergence, visual plant response rating
How it was run: as §2

[20] = tested on: ragweed (common ragweed, Ambrosia artemisiifolia); test: Test C preemergence, visual plant response rating
How it was run: as §2

[21] = Test C, postemergence, 125 g ai/ha
[22] = Test C, 31 g ai/ha, 0 is no effect, 100 is complete control

Row | SMILES | Plant response rating, Sedge, Umbrella (Flood) [1] | Plant response rating, Barnyardgrass (Flood) [2] | Plant response rating, Rice (Flood) [3] | Plant response rating, Ducksalad (Flood) [4] | Foxtail, Giant plant response rating (0 to 100 scale) ([5]; 31 g ai/ha) | Foxtail, Giant plant response rating (0 to 100 scale) ([5]; 125 g ai/ha) | Pigweed plant response rating (0 to 100 scale) ([6]; Postemergence, 31 g ai/ha) | Pigweed plant response rating (0 to 100 scale) [6, 21] | Kochia plant response rating (0 to 100 scale) ([7]; 31 g ai/ha) | Kochia plant response rating (0 to 100 scale) ([7]; 125 g ai/ha) | Blackgrass plant response rating (0 to 100 scale) ([8]; 31 g ai/ha) | Blackgrass plant response rating (0 to 100 scale) ([8]; 125 g ai/ha) | Corn plant response rating (0 to 100 scale) ([9]; 31 g ai/ha) | Corn plant response rating (0 to 100 scale) ([9]; 125 g ai/ha) | Ryegrass, Italian plant response rating (0 to 100 scale) ([10]; Postemergence, 31 g ai/ha) | Ryegrass, Italian plant response rating (0 to 100 scale) [10, 21] | Barnyardgrass plant response rating (0 to 100 scale) ([11]; 31 g ai/ha) | Barnyardgrass plant response rating (0 to 100 scale) ([11]; 125 g ai/ha) | Ragweed plant response rating (0 to 100 scale) ([12]; Postemergence, 31 g ai/ha) | Ragweed plant response rating (0 to 100 scale) [12, 21] | also measured
1 | C#CCO/N=C(\c1cc(C)cc(Cl)c1)c1c(O)c(C)nn(C)c1=O [Compound 155] | 45 | 15 | 0 | 30 | 80 | 90 | 50 | 100 | 70 | 80 | 30 | 90 | 0 | 20 | 90 | 100 | 50 | 80 | 90 | 100 | Galium plant response rating (0 to 100 scale) ([13]; 31 g ai/ha): 90; Galium plant response rating (0 to 100 scale) ([13]; 125 g ai/ha): 90; Wheat plant response rating (0 to 100 scale) ([14]; Postemergence, 31 g ai/ha): 0; Wheat plant response rating (0 to 100 scale) [14, 21]: 60; Foxtail, Giant plant response rating (0 to 100 scale) ([15]; 125 g ai/ha): 90; Foxtail, Giant plant response rating (0 to 100 scale) [15, 22]: 80; Pigweed plant response rating (0 to 100 scale) ([16]; 125 g ai/ha): 100; Pigweed plant response rating (0 to 100 scale) [16, 22]: 40; Kochia plant response rating (0 to 100 scale) ([17]; 125 g ai/ha): 90; Kochia plant response rating (0 to 100 scale) [17, 22]: 0; Ryegrass, Italian plant response rating (0 to 100 scale) ([18]; 125 g ai/ha): 100; Ryegrass, Italian plant response rating (0 to 100 scale) [18, 22]: 40; Barnyardgrass plant response rating (0 to 100 scale) ([19]; 125 g ai/ha): 100; Barnyardgrass plant response rating (0 to 100 scale) [19, 22]: 70; Ragweed plant response rating (0 to 100 scale) ([20]; 125 g ai/ha): 90; Ragweed plant response rating (0 to 100 scale) [20, 22]: 70
2 | CO/N=C(/c1cc(Cl)cc(Br)c1)c1c(O)c(C)nn(C)c1=O [Compound 156] | 30 | 0 | 0 | 30 | 60 | 90 | 70 | 80 | 80 | 100 | 30 | 30 | 20 | 20 | 100 | 100 | 40 | 70 | 90 | 100 | Galium plant response rating (0 to 100 scale) ([13]; 31 g ai/ha): 100; Galium plant response rating (0 to 100 scale) ([13]; 125 g ai/ha): 100; Wheat plant response rating (0 to 100 scale) ([14]; Postemergence, 31 g ai/ha): 0; Wheat plant response rating (0 to 100 scale) [14, 21]: 50; Foxtail, Giant plant response rating (0 to 100 scale) ([15]; 125 g ai/ha): 100; Foxtail, Giant plant response rating (0 to 100 scale) [15, 22]: 50; Pigweed plant response rating (0 to 100 scale) ([16]; 125 g ai/ha): 80; Pigweed plant response rating (0 to 100 scale) [16, 22]: 40; Kochia plant response rating (0 to 100 scale) ([17]; 125 g ai/ha): 100; Kochia plant response rating (0 to 100 scale) [17, 22]: 40; Ryegrass, Italian plant response rating (0 to 100 scale) ([18]; 125 g ai/ha): 100; Ryegrass, Italian plant response rating (0 to 100 scale) [18, 22]: 100; Barnyardgrass plant response rating (0 to 100 scale) ([19]; 125 g ai/ha): 80; Barnyardgrass plant response rating (0 to 100 scale) [19, 22]: 0; Ragweed plant response rating (0 to 100 scale) ([20]; 125 g ai/ha): 100; Ragweed plant response rating (0 to 100 scale) [20, 22]: 100
3 | CO/N=C(\c1cc(Cl)cc(Br)c1)c1c(O)c(C)nn(C)c1=O [Compound 157] | 0 | 0 | 0 | 0 | 60 | 90 | 20 | 60 | 80 | 100 | 10 | 20 | 10 | 30 | 70 | 100 | 30 | 80 | 70 | 100 | Galium plant response rating (0 to 100 scale) ([13]; 31 g ai/ha): 90; Galium plant response rating (0 to 100 scale) ([13]; 125 g ai/ha): 100; Wheat plant response rating (0 to 100 scale) ([14]; Postemergence, 31 g ai/ha): 0; Wheat plant response rating (0 to 100 scale) [14, 21]: 60; Foxtail, Giant plant response rating (0 to 100 scale) ([15]; 125 g ai/ha): 100; Foxtail, Giant plant response rating (0 to 100 scale) [15, 22]: 80; Pigweed plant response rating (0 to 100 scale) ([16]; 125 g ai/ha): 40; Pigweed plant response rating (0 to 100 scale) [16, 22]: 10; Kochia plant response rating (0 to 100 scale) ([17]; 125 g ai/ha): 100; Kochia plant response rating (0 to 100 scale) [17, 22]: 50; Ryegrass, Italian plant response rating (0 to 100 scale) ([18]; 125 g ai/ha): 100; Ryegrass, Italian plant response rating (0 to 100 scale) [18, 22]: 90; Barnyardgrass plant response rating (0 to 100 scale) ([19]; 125 g ai/ha): 90; Barnyardgrass plant response rating (0 to 100 scale) [19, 22]: 70; Ragweed plant response rating (0 to 100 scale) ([20]; 125 g ai/ha): 100; Ragweed plant response rating (0 to 100 scale) [20, 22]: 100
4 | Cc1nn(C)c(=O)c(/C(=N/OCc2ccccc2)c2ccc(F)c3ccccc23)c1O [Compound 158] | 65 | 45 | 15 | 50 | 30 | 70 | 50 | 50 | 0 | 0 | 0 | 10 | 0 | 10 | 0 | 20 | 50 | 70 | 40 | 60 | Galium plant response rating (0 to 100 scale) ([13]; 31 g ai/ha): 90; Galium plant response rating (0 to 100 scale) ([13]; 125 g ai/ha): 0; Wheat plant response rating (0 to 100 scale) ([14]; Postemergence, 31 g ai/ha): 0; Wheat plant response rating (0 to 100 scale) [14, 21]: 0; Foxtail, Giant plant response rating (0 to 100 scale) ([15]; 125 g ai/ha): 80; Foxtail, Giant plant response rating (0 to 100 scale) [15, 22]: 10; Pigweed plant response rating (0 to 100 scale) ([16]; 125 g ai/ha): 50; Pigweed plant response rating (0 to 100 scale) [16, 22]: 0; Kochia plant response rating (0 to 100 scale) ([17]; 125 g ai/ha): 0; Kochia plant response rating (0 to 100 scale) [17, 22]: 0; Ryegrass, Italian plant response rating (0 to 100 scale) ([18]; 125 g ai/ha): 0; Ryegrass, Italian plant response rating (0 to 100 scale) [18, 22]: 0; Barnyardgrass plant response rating (0 to 100 scale) ([19]; 125 g ai/ha): 30; Barnyardgrass plant response rating (0 to 100 scale) [19, 22]: 20; Ragweed plant response rating (0 to 100 scale) ([20]; 125 g ai/ha): 40; Ragweed plant response rating (0 to 100 scale) [20, 22]: 40
